Measurements taken from publication PMC2891776 (Journal of medicinal chemistry, 2010).

What was measured:
hASBT [1] = biological target: T1, hASBT (Homo sapiens, UniProt Q12908); assay: Inhibition of taurocholate uptake in hASBT-MDCK monolayers; type: cell-based; settings: for fold more potent than 33: ratio of Ki relative to 33
T1 sequence (Q12908 1-348): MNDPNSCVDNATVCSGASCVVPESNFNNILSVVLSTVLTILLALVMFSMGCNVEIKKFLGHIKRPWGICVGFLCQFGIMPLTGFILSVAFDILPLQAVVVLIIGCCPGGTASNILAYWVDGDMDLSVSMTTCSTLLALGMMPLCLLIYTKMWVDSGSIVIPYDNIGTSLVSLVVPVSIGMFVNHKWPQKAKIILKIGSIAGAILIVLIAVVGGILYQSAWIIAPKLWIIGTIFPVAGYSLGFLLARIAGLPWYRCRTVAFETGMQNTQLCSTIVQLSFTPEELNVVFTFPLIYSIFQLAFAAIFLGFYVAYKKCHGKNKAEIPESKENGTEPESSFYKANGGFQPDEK

hASBT [2] = biological target: T1, hASBT; settings: previously reported; cited from earlier work

For `CC(CCC(=O)NC(CCC(=O)Nc1cccc(C(=O)O)c1)C(=O)OOCc1ccccc1)C1CCC2C3C(O)CC4CC(O)CCC4(C)C3CCC12C` (centres unmarked) [Compound 30], which “hASBT inhibition potency” value (hASBT [1]; inhibition of taurocholate uptake) is on record?
The value was “potent inhibitor”.

With `C[C@H](CCC(=O)N[C@@H](CCC(=O)Nc1ccccc1C(=O)O)C(=O)O)[C@H]1CC[C@H]2[C@@H]3[C@H](O)C[C@H]4C[C@H](O)CC[C@]4(C)[C@H]3CC[C@]12C` [Compound 31] as the compound, how does the “fold more potent than 33” value (hASBT [1]) read?
The value was “over 2 fold”.

What does the source list for `C[C@H](CCC(=O)N[C@@H](CCC(=O)Nc1cccc(C(=O)O)c1)C(=O)O)[C@H]1CC[C@H]2[C@@H]3[C@H](O)C[C@H]4C[C@H](O)CC[C@]4(C)[C@H]3CC[C@]12C` [Compound 32]?
Affinity (switch on or off) (hASBT [1]; observed affinity of dianions, molecular switch state): High (on); fold more potent than 33 (hASBT [1]): over 2 fold

With `C[C@H](CCC(=O)N[C@@H](CCC(=O)O)C(=O)O)[C@H]1CC[C@H]2[C@@H]3[C@H](O)C[C@@H]4C[C@H](O)CC[C@]4(C)[C@H]3CC[C@]12C` [glu-CDCA, Glutamic acid CDCA amide] as the compound, how does the “hASBT activity” value (hASBT [2]) read?
The value was “poor activity”.
